In US6689773B2, “Uracil substituted phenyl sulfamoyl carboxamides” (BASF Aktiengesellschaft, priority 2000, dated 2004):

What was measured:
Format in all cases: in vivo
[1] = system: ABUTH, Velvetleaf, Abutilon theophrasti, Medic.; assay: Postemergence herbicidal evaluation (Example 147); details: rating scale 0-9, two to three weeks after treatment
Outline: (§1)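 Visual 0-9 rating against an untreated control, scored roughly two to three weeks after a postemergence spray of two-week-old seedlings. Dose equivalent about 0.016 to 0.032 kg/ha, delivered in 80/20 acetone/water with 1.0% SUN-IT II at 40 psi.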

[2] = system: CHEAL, Lambsquarters, Chenopodium album, L. Common; assay: Postemergence herbicidal evaluation (Example 147); details: rating scale 0-9, two to three weeks after treatment
Outline: as §1

[3] = system: XANST, Cocklebur, Xanthium strumariam; assay: Postemergence herbicidal evaluation (Example 147); details: rating scale 0-9, two to three weeks after treatment
Outline: as §1

[4] = system: GLXMA, Soybean, Glycine max, (L.) Merr.; assay: Postemergence herbicidal evaluation (Example 147); details: rating scale 0-9, two to three weeks after treatment
Outline: as §1

[5] = system: ALOMY, Blackgrass, Alopecurus myosuroides; assay: Postemergence herbicidal evaluation (Example 147); details: rating scale 0-9, two to three weeks after treatment
Outline: as §1

[6] = system: DIGSA, Crabgrass, (Hairy) L, Digitaria sanguinalis, (L)Scop; assay: Postemergence herbicidal evaluation (Example 147); details: rating scale 0-9, two to three weeks after treatment
Outline: as §1

[7] = system: ZEAMX, Field corn, Zea mays L.; assay: Postemergence herbicidal evaluation (Example 147); details: rating scale 0-9, two to three weeks after treatment
Outline: as §1

[8] = system: IPOHE, Morningglory, Ivyleaf, Ipomoea hederacea, (L)Jacq.; assay: Postemergence herbicidal evaluation (Example 147); details: rating scale 0-9, two to three weeks after treatment
Outline: as §1

[9] = system: TRZAW, Winter wheat, Tritium Aestivum, L. (Winter); assay: Postemergence herbicidal evaluation (Example 147); details: rating scale 0-9, two to three weeks after treatment
Outline: as §1

[10] = system: SETVI, Green foxtail, Setaria viridis, (L.)Beau; assay: Postemergence herbicidal evaluation (Example 147); details: rating scale 0-9, two to three weeks after treatment
Outline: as §1

[11] = system: AMBEL, Ragweed, Common, Ambrosia artemiisifolia, L.; assay: Postemergence herbicidal evaluation (Example 147); details: rating scale 0-9, two to three weeks after treatment
Outline: as §1

[12] = system: ECHCG, Barnyardgrass, Echinochloa crusgalli, (L.)Beau; assay: Postemergence herbicidal evaluation (Example 147); details: rating scale 0-9, two to three weeks after treatment
Outline: as §1

[13] = system: ABUTH, Velvetleaf, Abutilon theophrasti, Medic.; assay: Preemergence herbicidal evaluation (Example 148); details: rating scale 0-9, two to four weeks after treatment
Outline: (§2)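 Herbicidal effect is a visual score comparing treated plants with a control for stand, vigor, size, malformation and chlorosis. Treatment was a preemergence spray (~0.125–0.250 kg/ha, aqueous acetone); assessment came 2–4 weeks later.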

[14] = system: CHEAL, Lambsquarters, Chenopodium album, L. Common; assay: Preemergence herbicidal evaluation (Example 148); details: rating scale 0-9, two to four weeks after treatment
Outline: as §2

[15] = system: XANST, Cocklebur, Xanthium strumariam; assay: Preemergence herbicidal evaluation (Example 148); details: rating scale 0-9, two to four weeks after treatment
Outline: as §2

[16] = system: GLXMA, Soybean, Glycine max, (L.) Merr.; assay: Preemergence herbicidal evaluation (Example 148); details: rating scale 0-9, two to four weeks after treatment
Outline: as §2

[17] = system: ALOMY, Blackgrass, Alopecurus myosuroides; assay: Preemergence herbicidal evaluation (Example 148); details: rating scale 0-9, two to four weeks after treatment
Outline: as §2

[18] = system: DIGSA, Crabgrass, (Hairy) L, Digitaria sanguinalis, (L)Scop; assay: Preemergence herbicidal evaluation (Example 148); details: rating scale 0-9, two to four weeks after treatment
Outline: as §2

[19] = system: ZEAMX, Field corn, Zea mays L.; assay: Preemergence herbicidal evaluation (Example 148); details: rating scale 0-9, two to four weeks after treatment
Outline: as §2

[20] = system: IPOHE, Morningglory, Ivyleaf, Ipomoea hederacea, (L)Jacq.; assay: Preemergence herbicidal evaluation (Example 148); details: rating scale 0-9, two to four weeks after treatment
Outline: as §2

[21] = system: TRZAW, Winter wheat, Tritium Aestivum, L. (Winter); assay: Preemergence herbicidal evaluation (Example 148); details: rating scale 0-9, two to four weeks after treatment
Outline: as §2

[22] = system: SETVI, Green foxtail, Setaria viridis, (L.)Beau; assay: Preemergence herbicidal evaluation (Example 148); details: rating scale 0-9, two to four weeks after treatment
Outline: as §2

[23] = system: AMBEL, Ragweed, Common, Ambrosia artemiisifolia, L.; assay: Preemergence herbicidal evaluation (Example 148); details: rating scale 0-9, two to four weeks after treatment
Outline: as §2

[24] = system: ECHCG, Barnyardgrass, Echinochloa crusgalli, (L.)Beau; assay: Preemergence herbicidal evaluation (Example 148); details: rating scale 0-9, two to four weeks after treatment
Outline: as §2

For `CCCCN(C)S(=O)(=O)NC(=O)c1cc(-n2c(=O)cc(C(F)(F)F)n(C)c2=O)c(F)cc1Cl` [Example 83], the “Postemergence herbicidal rating ABUTH” value ([1]; rate 0.016 kg/ha) was 9.0, the “Postemergence herbicidal rating ABUTH” value ([1]; rate 0.032 kg/ha) was 9.0 and the “Postemergence herbicidal rating CHEAL” value ([2]; rate 0.016 kg/ha) was 5.0. The “Postemergence herbicidal rating CHEAL” value ([2]; rate 0.032 kg/ha) was 5.0, the “Postemergence herbicidal rating XANST” value ([3]; rate 0.016 kg/ha) was 9.0 and the “Postemergence herbicidal rating XANST” value ([3]; rate 0.032 kg/ha) was 9.0. The “Postemergence herbicidal rating GLXMA” value ([4]; rate 0.016 kg/ha) was 7.0, the “Postemergence herbicidal rating GLXMA” value ([4]; rate 0.032 kg/ha) was 7.5 and the “Postemergence herbicidal rating ALMOY” value ([5]; rate 0.016 kg/ha) was 0.0. The “Postemergence herbicidal rating ALMOY” value ([5]; rate 0.032 kg/ha) was 1.0, the “Postemergence herbicidal rating DIGSA” value ([6]; rate 0.016 kg/ha) was 3.0 and the “Postemergence herbicidal rating DIGSA” value ([6]; rate 0.032 kg/ha) was 4.0. The “Postemergence herbicidal rating ZEAMX” value ([7]; rate 0.016 kg/ha) was 5.5, the “Postemergence herbicidal rating ZEAMX” value ([7]; rate 0.032 kg/ha) was 6.0 and the “Postemergence herbicidal rating IPOHE” value ([8]; rate 0.016 kg/ha) was 8.0. The “Postemergence herbicidal rating IPOHE” value ([8]; rate 0.032 kg/ha) was 9.0, the “Postemergence herbicidal rating TRZAW” value ([9]; rate 0.016 kg/ha) was 4.5 and the “Postemergence herbicidal rating TRZAW” value ([9]; rate 0.032 kg/ha) was 5.5. For the same compound, the “Postemergence herbicidal rating SETVI” value ([10]; rate 0.016 kg/ha) was 7.0, the “Postemergence herbicidal rating SETVI” value ([10]; rate 0.032 kg/ha) was 8.0 and the “Postemergence herbicidal rating AMBEL” value ([11]; rate 0.016 kg/ha) was 6.0. For the same compound, the “Postemergence herbicidal rating AMBEL” value ([11]; rate 0.032 kg/ha) was 8.0, the “Postemergence herbicidal rating ECHCG” value ([12]; rate 0.016 kg/ha) was 8.0 and the “Postemergence herbicidal rating ECHCG” value ([12]; rate 0.032 kg/ha) was 8.0. For the same compound, the “Preemergence herbicidal rating ABUTH” value ([13]; rate 0.125 kg/ha) was 8.0, the “Preemergence herbicidal rating ABUTH” value ([13]; rate 0.25 kg/ha) was 9.0 and the “Preemergence herbicidal rating CHEAL” value ([14]; rate 0.125 kg/ha) was 9.0. The “Preemergence herbicidal rating CHEAL” value ([14]; rate 0.25 kg/ha) was 9.0, the “Preemergence herbicidal rating XANST” value ([15]; rate 0.125 kg/ha) was 4.0 and the “Preemergence herbicidal rating XANST” value ([15]; rate 0.25 kg/ha) was 5.0. For the same compound, the “Preemergence herbicidal rating GLXMA” value ([16]; rate 0.125 kg/ha) was 1.0, the “Preemergence herbicidal rating GLXMA” value ([16]; rate 0.25 kg/ha) was 4.0 and the “Preemergence herbicidal rating ALMOY” value ([17]; rate 0.125 kg/ha) was 0.0. The “Preemergence herbicidal rating ALMOY” value ([17]; rate 0.25 kg/ha) was 0.0, the “Preemergence herbicidal rating DIGSA” value ([18]; rate 0.125 kg/ha) was 1.0 and the “Preemergence herbicidal rating DIGSA” value ([18]; rate 0.25 kg/ha) was 9.0. For the same compound, the “Preemergence herbicidal rating ZEAMX” value ([19]; rate 0.125 kg/ha) was 0.0, the “Preemergence herbicidal rating ZEAMX” value ([19]; rate 0.25 kg/ha) was 2.0 and the “Preemergence herbicidal rating IPOHE” value ([20]; rate 0.125 kg/ha) was 7.0. For the same compound, the “Preemergence herbicidal rating IPOHE” value ([20]; rate 0.25 kg/ha) was 8.0, the “Preemergence herbicidal rating TRZAW” value ([21]; rate 0.125 kg/ha) was 0.0 and the “Preemergence herbicidal rating TRZAW” value ([21]; rate 0.25 kg/ha) was 0.0. For the same compound, the “Preemergence herbicidal rating SETVI” value ([22]; rate 0.125 kg/ha) was 3.0, the “Preemergence herbicidal rating SETVI” value ([22]; rate 0.25 kg/ha) was 6.0 and the “Preemergence herbicidal rating AMBEL” value ([23]; rate 0.125 kg/ha) was 8.0. For the same compound, the “Preemergence herbicidal rating AMBEL” value ([23]; rate 0.25 kg/ha) was 8.0, the “Preemergence herbicidal rating ECHCG” value ([24]; rate 0.125 kg/ha) was 4.0 and the “Preemergence herbicidal rating ECHCG” value ([24]; rate 0.25 kg/ha) was 5.0.
With `CN(CCC#N)S(=O)(=O)NC(=O)c1cc(-n2c(=O)cc(C(F)(F)F)n(C)c2=O)c(F)cc1Cl` [Example 84] the “Postemergence herbicidal rating ABUTH” value ([1]; rate 0.016 kg/ha) was 9.0, the “Postemergence herbicidal rating ABUTH” value ([1]; rate 0.032 kg/ha) was 9.0 and the “Postemergence herbicidal rating CHEAL” value ([2]; rate 0.016 kg/ha) was 7.0. The “Postemergence herbicidal rating CHEAL” value ([2]; rate 0.032 kg/ha) was 9.0, the “Postemergence herbicidal rating XANST” value ([3]; rate 0.016 kg/ha) was 9.0 and the “Postemergence herbicidal rating XANST” value ([3]; rate 0.032 kg/ha) was 9.0. For the same compound, the “Postemergence herbicidal rating GLXMA” value ([4]; rate 0.016 kg/ha) was 7.0, the “Postemergence herbicidal rating GLXMA” value ([4]; rate 0.032 kg/ha) was 8.5 and the “Postemergence herbicidal rating ALMOY” value ([5]; rate 0.016 kg/ha) was 1.0. The “Postemergence herbicidal rating ALMOY” value ([5]; rate 0.032 kg/ha) was 2.0, the “Postemergence herbicidal rating DIGSA” value ([6]; rate 0.016 kg/ha) was 5.0 and the “Postemergence herbicidal rating DIGSA” value ([6]; rate 0.032 kg/ha) was 6.0. For the same compound, the “Postemergence herbicidal rating ZEAMX” value ([7]; rate 0.016 kg/ha) was 7.0, the “Postemergence herbicidal rating ZEAMX” value ([7]; rate 0.032 kg/ha) was 8.0 and the “Postemergence herbicidal rating IPOHE” value ([8]; rate 0.016 kg/ha) was 9.0. For the same compound, the “Postemergence herbicidal rating IPOHE” value ([8]; rate 0.032 kg/ha) was 9.0, the “Postemergence herbicidal rating TRZAW” value ([9]; rate 0.016 kg/ha) was 5.0 and the “Postemergence herbicidal rating TRZAW” value ([9]; rate 0.032 kg/ha) was 5.5. For the same compound, the “Postemergence herbicidal rating SETVI” value ([10]; rate 0.016 kg/ha) was 7.0, the “Postemergence herbicidal rating SETVI” value ([10]; rate 0.032 kg/ha) was 8.0 and the “Postemergence herbicidal rating AMBEL” value ([11]; rate 0.016 kg/ha) was 8.0. For the same compound, the “Postemergence herbicidal rating AMBEL” value ([11]; rate 0.032 kg/ha) was 9.0, the “Postemergence herbicidal rating ECHCG” value ([12]; rate 0.016 kg/ha) was 8.0 and the “Postemergence herbicidal rating ECHCG” value ([12]; rate 0.032 kg/ha) was 9.0. For the same compound, the “Preemergence herbicidal rating ABUTH” value ([13]; rate 0.125 kg/ha) was 9.0, the “Preemergence herbicidal rating ABUTH” value ([13]; rate 0.25 kg/ha) was 9.0 and the “Preemergence herbicidal rating CHEAL” value ([14]; rate 0.125 kg/ha) was 9.0. The “Preemergence herbicidal rating CHEAL” value ([14]; rate 0.25 kg/ha) was 9.0, the “Preemergence herbicidal rating XANST” value ([15]; rate 0.125 kg/ha) was 9.0 and the “Preemergence herbicidal rating XANST” value ([15]; rate 0.25 kg/ha) was 9.0. For the same compound, the “Preemergence herbicidal rating GLXMA” value ([16]; rate 0.125 kg/ha) was 2.0, the “Preemergence herbicidal rating GLXMA” value ([16]; rate 0.25 kg/ha) was 7.0 and the “Preemergence herbicidal rating ALMOY” value ([17]; rate 0.125 kg/ha) was 0.0. For the same compound, the “Preemergence herbicidal rating ALMOY” value ([17]; rate 0.25 kg/ha) was 1.0, the “Preemergence herbicidal rating DIGSA” value ([18]; rate 0.125 kg/ha) was 7.0 and the “Preemergence herbicidal rating DIGSA” value ([18]; rate 0.25 kg/ha) was 8.0. For the same compound, the “Preemergence herbicidal rating ZEAMX” value ([19]; rate 0.125 kg/ha) was 0.0, the “Preemergence herbicidal rating ZEAMX” value ([19]; rate 0.25 kg/ha) was 1.0 and the “Preemergence herbicidal rating IPOHE” value ([20]; rate 0.125 kg/ha) was 9.0. The “Preemergence herbicidal rating IPOHE” value ([20]; rate 0.25 kg/ha) was 9.0, the “Preemergence herbicidal rating TRZAW” value ([21]; rate 0.125 kg/ha) was 0.0 and the “Preemergence herbicidal rating TRZAW” value ([21]; rate 0.25 kg/ha) was 2.0. The “Preemergence herbicidal rating SETVI” value ([22]; rate 0.125 kg/ha) was 7.0, the “Preemergence herbicidal rating SETVI” value ([22]; rate 0.25 kg/ha) was 7.0 and the “Preemergence herbicidal rating AMBEL” value ([23]; rate 0.125 kg/ha) was 9.0. The “Preemergence herbicidal rating AMBEL” value ([23]; rate 0.25 kg/ha) was 9.0, the “Preemergence herbicidal rating ECHCG” value ([24]; rate 0.125 kg/ha) was 5.0 and the “Preemergence herbicidal rating ECHCG” value ([24]; rate 0.25 kg/ha) was 6.0.
